Results: patent publication US9902725B2, “Heterocyclic derivatives as RORgamma modulators” (GENFIT, priority 2014, dated 2018)

target: T1, RORγt ligand-binding domain (RORγt-LBD) (Homo sapiens, UniProt P51449); test: Time-resolved FRET (TR-FRET) RORγt coactivator assay; format: biochemical; details: GST-RORγ-LBD, biotinylated RIP140 peptide, coactivator displacement
T1 construct: 20 nM recombinantly expressed RORγ-LBD fused to GST
T1 sequence (P51449 269-508 limits assumed): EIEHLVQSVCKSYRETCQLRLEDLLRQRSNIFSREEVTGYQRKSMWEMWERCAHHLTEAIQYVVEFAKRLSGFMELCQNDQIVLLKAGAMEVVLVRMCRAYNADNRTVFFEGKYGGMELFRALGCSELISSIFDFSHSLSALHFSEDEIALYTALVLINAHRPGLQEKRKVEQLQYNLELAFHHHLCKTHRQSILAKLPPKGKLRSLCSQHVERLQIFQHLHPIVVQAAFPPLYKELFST
Description: Time-resolved FRET (TR-FRET) RORγt coactivator assay was used to identify RORγ modulator compounds with ligand-dependent coactivator displacement. The assay uses a d2-labeled anti-GST antibody, synthetic N-terminally biotinylated peptide which is derived from nuclear receptor coactivator protein RIP140, and a RORγt ligand-binding domain (RORγt-LBD) that is tagged with glutathione-S-transferase (GST). The influence of compounds on the RORγ-peptide interaction relies on the binding dependent energy transfer from a donor to an acceptor fluorophore attached to the binding partner of interest. […] For reduction of background from compound fluorescence, TR-FRET method makes use of generic fluorophore labels and time resolved detection.
The assays were done in a final volume of 20 μl in a 384 well plate in a CHAPS buffer (2 mM CHAPS; 1 mM DTT, 2 mM EDTA; 0.1% BSA), containing 20 nM recombinantly expressed RORγ-LBD fused to GST, 30 nM N-terminally biotinylated peptide, 1 nM streptavidin-terbium conjugate and 20 nM d2 labeled-anti-GST. Test compounds were diluted using 10 mM stock solution. The range of the final compound concentrations used in this test was from 0.3 nM to 30 μM (logarithmic scale). DMSO content of the samples was kept at 1%. The assay was equilibrated for 2 hours in the dark at room temperature in 384 well plates (Falcon). The signal was detected by an Ultra384 reader (TECAN). The results were visualized by plotting the ratio between the emitted light at 665 nm and 620 nm. A basal level of RORγ-peptide formation is observed in the absence of added compound. Compounds that promote coactivator displacement induce a concentration-dependent decrease in time-resolved fluorescent signal. Data were collected and analyzed using GraphPad Prism software (GraphPad Software V5.02, San Diego Calif. USA). IC50 in μM and Emax in % were reported for each compound.

IC50 | Compound
1000 to 10000 nM | CC(C)(C)OC(=O)CCc1c[nH]c2ccc(CC(=O)NC(c3ccccc3)c3ccccc3N3CC=CCC3)cc12 (stereo not drawn) [Cpd. 127, tert-butyl 3-{5-[({phenyl[2-(1,2,3,6-tetrahydropyridin-1-yl)phenyl]methyl}carbamoyl)methyl]-1H-indol-3-yl}propanoate]
1000 to 10000 nM | CC(C)(C)OC(=O)CCc1c[nH]c2ccc(CC(=O)NC3(c4ccccc4N4CCCC4)CCCC3)cc12 [Cpd. 129, tert-butyl 3-{5-[({1-[2-(pyrrolidin-1-yl)phenyl]cyclopentyl}carbamoyl)methyl]-1H-indol-3-yl}propanoate]
< 1000 nM | Cc1ccc(C(NC(=O)Cc2ccc3[nH]cc(CCC(=O)OC(C)(C)C)c3c2)c2ncccn2)c(N2CCCCC2)c1 (stereo not drawn) [Cpd. 131, tert-butyl 3-{5-[({[4-methyl-2-(piperidin-1-yl)phenyl](pyrimidin-2-yl)methyl}carbamoyl)methyl]-1H-indol-3-yl}propanoate]
1000 to 10000 nM | Cc1ccc(C(CC(C)C)NC(=O)Cc2ccc3[nH]cc(CCC(=O)OC(C)(C)C)c3c2)c(N(C)C)c1 (stereo not drawn) [Cpd. 133, tert-butyl 3-{5-[({1-[2-(dimethylamino)-4-methylphenyl]-3-methylbutyl}carbamoyl)methyl]-1H-indol-3-yl}propanoate]
1000 to 10000 nM | COc1ccc(N2CCCCC2)c(C(NC(=O)Cc2ccc3[nH]cc(CCC(=O)OC(C)(C)C)c3c2)c2ccccc2)c1 (stereo not drawn) [Cpd. 135, tert-butyl 3-{5-[({[5-methoxy-2-(piperidin-1-yl)phenyl](phenyl)methyl}carbamoyl)methyl]-1H-indol-3-yl}propanoate]
1000 to 10000 nM | Cc1ccc(C(NC(=O)Cc2ccc3[nH]cc(CCC(=O)OC(C)(C)C)c3c2)c2ccc(C)s2)c(N2CCCCC2)c1 (stereo not drawn) [Cpd. 137, tert-butyl 3-{5-[({[4-methyl-2-(piperidin-1-yl)phenyl](5-methylthiophen-2-yl)methyl}carbamoyl)methyl]-1H-indol-3-yl}propanoate]
< 1000 nM | Cc1ccc(C(NC(=O)Cc2ccc3[nH]cc(CCC(=O)OC(C)(C)C)c3c2)c2nccs2)c(N2CCCCC2)c1 (stereo not drawn) [Cpd. 139, tert-butyl 3-{5-[({[4-methyl-2-(piperidin-1-yl)phenyl](1,3-thiazol-2-yl)methyl}carbamoyl)methyl]-1H-indol-3-yl}propanoate]
1000 to 10000 nM | CC(C)(C)OC(=O)CCc1c[nH]c2ccc(CC(=O)NC3(c4ccccc4N4CCCCC4)CCCCC3)cc12 [Cpd. 143, tert-butyl 3-{5-[({1-[2-(piperidin-1-yl)phenyl]cyclohexyl}carbamoyl)methyl]-1H-indol-3-yl}propanoate]
1000 to 10000 nM | CCOc1ccc(C(NC(=O)Cc2ccc3[nH]cc(CCC(=O)OC(C)(C)C)c3c2)c2ccccc2)c(N2CCCCC2)c1 (stereo not drawn) [Cpd. 149, tert-butyl 3-{5-[({[4-ethoxy-2-(piperidin-1-yl)phenyl](phenyl)methyl}carbamoyl)methyl]-1H-indol-3-yl}propanoate]
< 1000 nM | Cc1cccc(C(NC(=O)Cc2ccc3[nH]cc(CCC(=O)OC(C)(C)C)c3c2)c2ccccc2N2CCCCC2)c1 (stereo not drawn) [Cpd. 157, tert-butyl 3-[5-({[(3-methylphenyl)[2-(piperidin-1-yl)phenyl]methyl]carbamoyl}methyl)-1H-indol-3-yl]propanoate]
1000 to 10000 nM | Cc1ccc(C(NC(=O)Cc2ccc3[nH]cc(CCC(=O)OC(C)(C)C)c3c2)c2ccccc2)c(N)c1 (stereo not drawn) [Cpd. 183, tert-butyl 3-[5-({[(2-amino-4-methylphenyl)(phenyl)methyl]carbamoyl}methyl)-1H-indol-3-yl]propanoate]
< 1000 nM | Cc1ccc(C(C(=O)NCc2ccc3[nH]cc(CCC(=O)OC(C)(C)C)c3c2)c2ccccc2)c(N2CCCCC2)c1 (stereo not drawn) [Cpd. 208, tert-butyl 3-[5-({2-[4-methyl-2-(piperidin-1-yl)phenyl]-2-phenylacetamido}methyl)-1H-indol-3-yl]propanoate]
1000 to 10000 nM | CCOC(=O)CCCC(=O)c1c[nH]c2ccc(CC(=O)NC(c3ccccc3)c3ccccc3N3CCCCC3)cc12 (stereo not drawn) [Cpd. 214, ethyl 5-oxo-5-{5-[({phenyl[2-(piperidin-1-yl)phenyl]methyl}carbamoyl)methyl]-1H-indol-3-yl}pentanoate]
1000 to 10000 nM | CCCCC(NC(=O)Cc1ccc2[nH]cc(CCC(=O)OC(C)(C)C)c2c1)c1ccccc1N(CC)CC (stereo not drawn) [Cpd. 218, tert-butyl 3-{5-[({1-[2-(diethylamino)phenyl]pentyl}carbamoyl)methyl]-1H-indol-3-yl}propanoate]
< 1000 nM | COC(=O)Cc1c[nH]c2ccc(CC(=O)NC(c3ccccc3)c3ccc(C)cc3Br)cc12 (stereo not drawn) [Cpd. 220, methyl 2-[5-({[(2-bromo-4-methylphenyl)(phenyl)methyl]carbamoyl}methyl)-1H-indol-3-yl]acetate]
1000 to 10000 nM | COC(=O)Cc1c[nH]c2ccc(CC(=O)NC(c3ccc(C)s3)c3ccc(C)cc3C)cc12 (stereo not drawn) [Cpd. 222, methyl 2-[5-({[(2,4-dimethylphenyl)(5-methylthiophen-2-yl)methyl]carbamoyl}methyl)-1H-indol-3-yl]acetate]
< 1000 nM | COC(=O)Cc1c[nH]c2ccc(CC(=O)NC(c3ccccc3)c3ccccc3N3CCOCC3)cc12 (stereo not drawn) [Cpd. 224, methyl 2-{5-[({[2-(morpholin-4-yl)phenyl](phenyl)methyl}carbamoyl)methyl]-1H-indol-3-yl}acetate]
< 1000 nM | Cc1ccc(C(NC(=O)Cc2ccc3[nH]cc(CCC(=O)OC(C)(C)C)c3c2)c2ncccn2)c(Br)c1 (stereo not drawn) [Cpd. 226, tert-butyl 3-[5-({[(2-bromo-4-methylphenyl)(pyrimidin-2-yl)methyl]carbamoyl}methyl)-1H-indol-3-yl]propanoate]
1000 to 10000 nM | Cc1ccc(C(NC(=O)Cc2ccc3[nH]cc(CCC(=O)OC(C)(C)C)c3c2)c2ccccc2)c2[nH]ccc12 (stereo not drawn) [Cpd. 228, tert-butyl 3-[5-({[(4-methyl-1H-indol-7-yl)(phenyl)methyl]carbamoyl}methyl)-1H-indol-3-yl]propanoate]
1000 to 10000 nM | CCCCC(NC(=O)Cc1ccc2[nH]cc(CCC(=O)OC(C)(C)C)c2c1)c1ccc(C)cc1N1CCCCC1 (stereo not drawn) [Cpd. 230, tert-butyl 3-{5-[({1-[4-methyl-2-(piperidin-1-yl)phenyl]pentyl}carbamoyl)methyl]-1H-indol-3-yl}propanoate]
< 1000 nM | CC(C)(C)OC(=O)CCc1c[nH]c2ccc(CC(=O)NC(c3ccccc3)c3ccccc3N3CCCC(F)(F)C3)cc12 (stereo not drawn) [Cpd. 232, tert-butyl 3-{5-[({[2-(3,3-difluoropiperidin-1-yl)phenyl](phenyl)methyl}carbamoyl)methyl]-1H-indol-3-yl}propanoate]
1000 to 10000 nM | CC(C)(C)OC(=O)NC(=N)NC(=O)CCc1c[nH]c2ccc(CC(=O)NC(c3ccccc3)c3ccccc3N3CCCCC3)cc12 (stereo not drawn) [Cpd. 234, tert-butyl N-[(3-{5-[({phenyl[2-(piperidin-1-yl)phenyl]methyl}carbamoyl)methyl]-1H-indol-3-yl}propanamido)methanimidoyl]carbamate]
< 1000 nM | CCOC(=O)CCc1n[nH]c2ccc(CC(=O)NC(c3ccccc3)c3ccccc3N3CCCCC3)cc12 (stereo not drawn) [Cpd. 236, ethyl 3-{5-[({phenyl[2-(piperidin-1-yl)phenyl]methyl}carbamoyl)methyl]-1H-indazol-3-yl}propanoate]
1000 to 10000 nM | COC(=O)Cc1c[nH]c2ccc(CC(=O)NC(c3ccccc3)c3cccc(N4CCCCC4)c3)cc12 (stereo not drawn) [Cpd. 238, methyl 2-{5-[({phenyl[3-(piperidin-1-yl)phenyl]methyl}carbamoyl)methyl]-1H-indol-3-yl}acetate]
< 1000 nM | CC(C)CC(NC(=O)Cc1ccc2[nH]cc(CCC(=O)OC(C)(C)C)c2c1)c1ccccc1OC(C)C (stereo not drawn) [Cpd. 240, tert-butyl 3-{5-[({3-methyl-1-[2-(propan-2-yloxy)phenyl]butyl}carbamoyl)methyl]-1H-indol-3-yl}propanoate]
< 1000 nM | CCOc1ccc(C(NC(=O)Cc2ccc3[nH]cc(CCC(=O)OC(C)(C)C)c3c2)c2ccccc2)c(OCC)c1 (stereo not drawn) [Cpd. 246, tert-butyl 3-[5-({[(2,4-diethoxyphenyl)(phenyl)methyl]carbamoyl}methyl)-1H-indol-3-yl]propanoate]
1000 to 10000 nM | Cc1ccc(C(CC(C)C)NC(=O)Cc2ccc3[nH]cc(CCC(=O)OC(C)(C)C)c3c2)c(OC(C)C)c1 (stereo not drawn) [Cpd. 248, tert-butyl 3-{5-[({3-methyl-1-[4-methyl-2-(propan-2-yloxy)phenyl]butyl}carbamoyl)methyl]-1H-indol-3-yl}propanoate]
